# Results: patent publication US20020137929A1, “1 - (3-heterocyclylphenyl) isothiourea, -isourea, -guanidine and -amidine herbicidal agents” (Intellectual Property Department, BASF Aktiengesellschaft, priority 1998, published 2002)
# Tests used:
# [1] = tested on: MOOVA (Monochoria); experiment: Postemergence weed control under flooded paddy conditions; format: in vivo, Monochoria vaginalis; details: postemergence weeds
# In short: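 Flood-water application, about 0.0313–0.500 kg/ha a.i. in aqueous/acetone 50/50 v/v; water depth 1.5–3 cm throughout. Weeds 3–5 cm, rice 1.5–2.5 leaf. Greenhouse; 0–9 visual rating vs control at 3–4 wk.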
# [2] = tested on: GALAP (Galium); experiment: Postemergence herbicidal evaluation; format: in vivo, Galium aparine; details: postemergence
# In short: (§1)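 Scores (0–9) reflect plant stand, vigor, malformation, size, chlorosis and general appearance relative to control, read 4 to 5 weeks after treatment and averaged where tests were repeated. Application: about 0.0156–0.500 kg/ha sprayed at 40 psi onto two-week seedlings.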
# [3] = tested on: IPOSS (Morningglory Spp.); experiment: Preemergence herbicidal evaluation; format: in vivo, Ipomoea Spp.; details: rated 4-5 weeks after treatment
# Source text: (§2) Results of herbicide evaluation are expressed on a rating scale (0-9). The scale is based upon a visual observation of plant stand, vigor, malformation, size, chlorosis and overall plant appearance as compared with a control.
# (§3) The preemergence herbicidal activity of the test compounds of the present invention is exemplified by the following tests in which the seeds of a variety of monocotyledonous and dicotyledonous plants are separately mixed with potting soil and planted on top of approximately one inch of soil in separate pint cups. After planting, the cups are sprayed with the selected aqueous acetone solution containing test compound in sufficient quantity to provide the equivalent of about 0.0156 to 0.500 kg per hectare of test compound per cup. The treated cups are then placed on greenhouse benches, watered and cared for in accordance with conventional greenhouse procedures. From four to five weeks after treatment, the tests are terminated and each cup is examined and rated according to the rating system provided in Example 37.
# (§4) The compounds evaluated are reported by compound number given in Example 37.
# [4] = tested on: ABUTH (Velvetleaf); experiment: Postemergence herbicidal evaluation; format: in vivo, Abutilon theophrasti; details: postemergence
# In short: as §1
# [5] = tested on: IPOSS (Morningglory Spp.); experiment: Postemergence herbicidal evaluation; format: in vivo, Ipomoea Spp.
# Experimental: In the tests, seedling plants are grown in jiffy flats for about two weeks. The test compounds are dispersed in 50/50 acetone/water mixtures containing 0.5% TWEEN®20, a polyoxyethylene sorbitan monolaurate surfactant of Atlas Chemical Industries, in sufficient quantities to provide the equivalent of about 0.0156 kg to 0.500 kg per hectare of active compound when applied to the plants through a spray nozzle operating at 40 psi for a predetermined time. After spraying, the plants are placed on greenhouse benches and are cared for in accordance with conventional greenhouse procedures. From four to five weeks after treatment, the seedling plants are examined and rated according to the rating system set forth below. Where more than one test is involved for a given compound, the data are averaged.
# Plant species employed in these evaluations are reported by header abbreviation, common name and scientific name.
# as §2
# [6] = tested on: GALAP (Galium); experiment: Preemergence herbicidal evaluation; format: in vivo, Galium aparine; details: rated 4-5 weeks after treatment; for GALAP rating: preemergence, 0-9 scale
# In short: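 Herbicidal effect scored visually, 0-9, at 4 to 5 weeks against a control; compound applied preemergence by aqueous acetone spray to seeded soil at about 0.0156 to 0.500 kg/ha.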
# [7] = tested on: GLXMA (Soybean); experiment: Preemergence herbicidal evaluation; format: in vivo, Glycine max; details: rated 4-5 weeks after treatment
# Source text: as §2, §3, §4
# [8] = tested on: ORYSAT (Rice, Tebonnet); experiment: Rice tolerance to post-transplant applications, flooded paddy conditions (Table IV); format: in vivo, Oryza sativa, (L.) Tebonnet
# In short: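 Herbicidal effect is judged by eye on a 0–9 scale versus control, 3–4 weeks after dosing. Dosing is into flood water kept 1.5–3 cm over the soil, at about 0.0313–0.500 kg/ha in aqueous/acetone 50/50 v/v, on 3–5 cm weeds and 1.5–2.5-leaf rice seedlings.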
# [9] = tested on: ORYSAT (Rice, Tebonnet); experiment: Rice tolerance to post-transplant applications, flooded paddy conditions (Table III); format: in vivo, Oryza sativa, (L.) Tebonnet; details: for ORYSAT herbicidal effect rating (rice tolerance): post-transplant rice, flooded paddy, rated 3-4 weeks after treatment
# In short: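 Injury scored 0-9 by eye against untreated control, judging stand, vigor, malformation, size and chlorosis, three to four weeks after treatment. Compound in 50/50 aqueous/acetone, about 0.0313 to 0.500 kg/ha, was applied to paddy water (1.5 to 3 cm depth) three days after transplanting paired ten-day-old Tebonnet rice seedlings.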
# [10] = rate 0.0313 kg/ha, 3-4 weeks after treatment
# [11] = rate 0.0625 kg/ha, 3-4 weeks after treatment
# [12] = rate 0.1250 kg/ha, 3-4 weeks after treatment
# [13] = rate 0.2500 kg/ha, 3-4 weeks after treatment
smiles,measurement,setting,value
"C=CCN1C(=O)CSC1=Nc1cc(N2C(=O)C3=C(CCCC3)C2=O)c(F)cc1Cl [Compound 2, N-{5-[(3-allyl-4-oxo-2-thiazolidinylidene)amino]-4-chloro-2-fluorophenyl}-1-cyclohexene-1,2-dicarboximide]",Herbicidal rating MOOVA,[1]; [10],2.0
same,Herbicidal rating MOOVA,[1]; [11],4.5
same,Herbicidal rating MOOVA,[1]; [12],5.5
same,Herbicidal rating MOOVA,[1]; [13],9.0
same,Herbicidal rating MOOVA,"[1]; rate 0.5000 kg/ha, 3-4 weeks after treatment",9.0
same,GALAP herbicidal rating,[2]; rate 0.0157 kg/ha,4.0
same,GALAP herbicidal rating,[2]; rate 0.0313 kg/ha,8.0
same,GALAP herbicidal rating,[2]; rate 0.0625 kg/ha,4.0
same,GALAP herbicidal rating,[2]; rate 0.1250 kg/ha,4.0
same,GALAP herbicidal rating,[2]; rate 0.2500 kg/ha,4.0
same,GALAP herbicidal rating,[2]; rate 0.5000 kg/ha,4.0
same,IPOSS preemergence herbicidal rating,[3]; rate 0.0313 kg/ha,0.0
same,IPOSS preemergence herbicidal rating,[3]; rate 0.0625 kg/ha,0.0
same,IPOSS preemergence herbicidal rating,[3]; rate 0.1250 kg/ha,0.0
same,IPOSS preemergence herbicidal rating,[3]; rate 0.2500 kg/ha,0.0
same,IPOSS preemergence herbicidal rating,[3]; rate 0.5000 kg/ha,0.0
same,ABUTH herbicidal rating,[4]; rate 0.0157 kg/ha,0.0
same,ABUTH herbicidal rating,[4]; rate 0.0313 kg/ha,4.0
same,ABUTH herbicidal rating,[4]; rate 0.0625 kg/ha,9.0
same,ABUTH herbicidal rating,[4]; rate 0.1250 kg/ha,9.0
same,ABUTH herbicidal rating,[4]; rate 0.2500 kg/ha,9.0
same,ABUTH herbicidal rating,[4]; rate 0.5000 kg/ha,9.0
same,IPOSS herbicidal rating,[5]; rate 0.0157 kg/ha,4.0
same,IPOSS herbicidal rating,[5]; rate 0.0313 kg/ha,4.0
same,IPOSS herbicidal rating,[5]; rate 0.0625 kg/ha,4.0
same,IPOSS herbicidal rating,[5]; rate 0.1250 kg/ha,6.0
same,IPOSS herbicidal rating,[5]; rate 0.2500 kg/ha,9.0
same,IPOSS herbicidal rating,[5]; rate 0.5000 kg/ha,9.0
CN1C(=O)CS/C1=N/c1cc(-n2c(=O)cc(C(F)(F)F)n(C)c2=O)c(F)cc1Cl [Compound 7],Herbicidal rating MOOVA,[1]; [10],9.0
same,Herbicidal rating MOOVA,[1]; [11],9.0
same,Herbicidal rating MOOVA,[1]; [12],9.0
same,Herbicidal rating MOOVA,[1]; [13],9.0
same,GALAP herbicidal rating,[2]; rate 0.0157 kg/ha,3.0
same,GALAP herbicidal rating,[2]; rate 0.0313 kg/ha,4.0
same,GALAP herbicidal rating,[2]; rate 0.0625 kg/ha,5.0
same,GALAP herbicidal rating,[2]; rate 0.1250 kg/ha,9.0
same,IPOSS preemergence herbicidal rating,[3]; rate 0.0157 kg/ha,9.0
same,IPOSS preemergence herbicidal rating,[3]; rate 0.0313 kg/ha,9.0
same,IPOSS preemergence herbicidal rating,[3]; rate 0.0625 kg/ha,9.0
same,IPOSS preemergence herbicidal rating,[3]; rate 0.1250 kg/ha,9.0
same,IPOSS preemergence herbicidal rating,[3]; rate 0.2500 kg/ha,9.0
same,ABUTH herbicidal rating,[4]; rate 0.0157 kg/ha,9.0
same,ABUTH herbicidal rating,[4]; rate 0.0313 kg/ha,9.0
same,ABUTH herbicidal rating,[4]; rate 0.0625 kg/ha,9.0
same,ABUTH herbicidal rating,[4]; rate 0.1250 kg/ha,9.0
same,IPOSS herbicidal rating,[5]; rate 0.0157 kg/ha,6.0
same,IPOSS herbicidal rating,[5]; rate 0.0313 kg/ha,7.0
same,IPOSS herbicidal rating,[5]; rate 0.0625 kg/ha,9.0
same,GALAP preemergence herbicidal rating,[6]; rate 0.0157 kg/ha,4.0
same,GALAP preemergence herbicidal rating,[6]; rate 0.0313 kg/ha,7.5
same,GALAP preemergence herbicidal rating,[6]; rate 0.0625 kg/ha,9.0
same,GALAP preemergence herbicidal rating,[6]; rate 0.1250 kg/ha,9.0
same,GALAP preemergence herbicidal rating,[6]; rate 0.2500 kg/ha,9.0
CCOC(=O)CN1C(=O)C(CC(=O)O)S/C1=N/c1cc(-n2c(=O)cc(C(F)(F)F)n(C)c2=O)c(F)cc1Cl (stereo not shown) [Compound 16],Herbicidal rating MOOVA,[1]; [10],9.0
same,Herbicidal rating MOOVA,[1]; [11],9.0
same,Herbicidal rating MOOVA,[1]; [12],9.0
same,Herbicidal rating MOOVA,[1]; [13],3.0
same,GALAP herbicidal rating,[2]; rate 0.0157 kg/ha,5.0
same,GALAP herbicidal rating,[2]; rate 0.0313 kg/ha,5.3
same,GALAP herbicidal rating,[2]; rate 0.0625 kg/ha,6.8
same,GALAP herbicidal rating,[2]; rate 0.1250 kg/ha,8.4
same,GALAP herbicidal rating,[2]; rate 0.2500 kg/ha,9.0
same,GLXMA preemergence herbicidal rating,[7]; rate 0.0156 kg/ha,0.0
same,GLXMA preemergence herbicidal rating,[7]; rate 0.0313 kg/ha,0.0
same,GLXMA preemergence herbicidal rating,[7]; rate 0.0625 kg/ha,2.0
same,GLXMA preemergence herbicidal rating,[7]; rate 0.1250 kg/ha,2.0
same,GLXMA preemergence herbicidal rating,[7]; rate 0.2500 kg/ha,3.5
same,GLXMA preemergence herbicidal rating,[7]; rate 0.5000 kg/ha,7.0
same,Herbicidal rating ORYSAT (rice tolerance),[8]; in vivo,0.0
same,ABUTH herbicidal rating,[4]; rate 0.0157 kg/ha,9.0
same,ABUTH herbicidal rating,[4]; rate 0.0313 kg/ha,9.0
same,ABUTH herbicidal rating,[4]; rate 0.0625 kg/ha,9.0
same,ABUTH herbicidal rating,[4]; rate 0.1250 kg/ha,9.0
same,ABUTH herbicidal rating,[4]; rate 0.2500 kg/ha,9.0
same,Herbicidal rating ORYSAT (rice tolerance),[9]; in vivo,0.0
same,GALAP preemergence herbicidal rating,[6]; rate 0.0156 kg/ha,1.2
same,GALAP preemergence herbicidal rating,[6]; rate 0.0313 kg/ha,2.0
same,GALAP preemergence herbicidal rating,[6]; rate 0.0625 kg/ha,4.8
same,GALAP preemergence herbicidal rating,[6]; rate 0.1250 kg/ha,6.4
same,GALAP preemergence herbicidal rating,[6]; rate 0.2500 kg/ha,8.2
same,GALAP preemergence herbicidal rating,[6]; rate 0.5000 kg/ha,9.0
"CN1C(=O)C(CC(=O)OCCF)SC1=Nc1cc(-n2c(=O)cc(C(F)(F)F)n(C)c2=O)c(F)cc1Cl (stereo not shown) [Compound 93, 2-Fluoroethyl 2-{{2-chloro-5-[3,6-dihydro-3-methyl-2,6-dioxo-4-(trifluoromethyl)-1(2H)-pyrimidinyl]-4-fluorophenyl}imino}-3-methyl-4-oxo-5-thiazolidineacetate]",Herbicidal rating MOOVA,"[1]; Rate 0.0313 kg/ha, rated 3 to 4 weeks after treatment",9.0
same,Herbicidal rating MOOVA,"[1]; Rate 0.0625 kg/ha, rated 3 to 4 weeks after treatment",9.0
same,Herbicidal rating MOOVA,"[1]; Rate 0.1250 kg/ha, rated 3 to 4 weeks after treatment",9.0
same,Herbicidal rating MOOVA,"[1]; Rate 0.2500 kg/ha, rated 3 to 4 weeks after treatment",9.0
same,GALAP herbicidal rating,[2]; rate 0.0158 kg/ha,0.0
same,GALAP herbicidal rating,[2]; rate 0.0315 kg/ha,5.0
same,GALAP herbicidal rating,[2]; rate 0.0630 kg/ha,6.0
same,Herbicidal rating ORYSAT (rice tolerance),"[8]; Rate 0.0313 kg/ha, flooded paddy, post-transplant rice, rated 3 to 4 weeks after treatment",0.0
same,Herbicidal rating ORYSAT (rice tolerance),"[8]; Rate 0.0625 kg/ha, flooded paddy, post-transplant rice, rated 3 to 4 weeks after treatment",0.0
same,Herbicidal rating ORYSAT (rice tolerance),"[8]; Rate 0.1250 kg/ha, flooded paddy, post-transplant rice, rated 3 to 4 weeks after treatment",0.0
same,Herbicidal rating ORYSAT (rice tolerance),"[8]; Rate 0.2500 kg/ha, flooded paddy, post-transplant rice, rated 3 to 4 weeks after treatment",3.0
same,ABUTH herbicidal rating,[4]; rate 0.0158 kg/ha,9.0
same,ABUTH herbicidal rating,[4]; rate 0.0315 kg/ha,9.0
same,ABUTH herbicidal rating,[4]; rate 0.0630 kg/ha,9.0
same,ORYSAT herbicidal effect rating (rice tolerance),[9]; 0.0313 kg/ha,0.0
same,ORYSAT herbicidal effect rating (rice tolerance),[9]; 0.0625 kg/ha,0.0
same,ORYSAT herbicidal effect rating (rice tolerance),[9]; 0.1250 kg/ha,0.0
same,ORYSAT herbicidal effect rating (rice tolerance),[9]; 0.2500 kg/ha,3.0
same,GALAP rating,[6]; 0.0313 kg/ha,0.0
same,GALAP rating,[6]; 0.0625 kg/ha,0.0
same,GALAP rating,[6]; 0.1250 kg/ha,9.0
same,GALAP rating,[6]; 0.2500 kg/ha,9.0
